Reference: US7915276B2, “Berberrubine derivatives having antifungal activities” (priority 2006, dated 2011)

Experiments:
[1] = system: Candida albicans ATCC 10231; assay: In vitro antifungal activity (MIC), NCCLS method; format: cell-based; conditions: 48 hours
How it was run: (§1)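 Test samples were serially diluted two-fold, then inoculated with fungus to a final cell density of 5×10^2 to 2.5×10^3 cell/mL, following the NCCLS method. Plates were cultured for 48 hours and the minimum inhibitory concentration recorded.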

Candida krusei ATCC 6258 = assay: In vitro antifungal activity (MIC), NCCLS method; format: cell-based; conditions: 48 hours
How it was run: as §1

[2] = system: Candida glabrata ATCC 48435; assay: In vitro antifungal activity (MIC), NCCLS method; format: cell-based; conditions: Candida glabrata ATCC 48435; 48 hours
How it was run: as §1

[3] = system: Mucor ramosissimus ATCC 90286; assay: In vitro antifungal activity (MIC), NCCLS method; format: cell-based; conditions: 48 hours
How it was run: as §1

[4] = system: Candida albicans A207 (clinical isolate); assay: In vitro antifungal activity (MIC), NCCLS method; format: cell-based; conditions: 48 hours
How it was run: as §1

[5] = system: Candida tropicalis ATCC 13803; assay: In vitro antifungal activity (MIC), NCCLS method; format: cell-based; conditions: 48 hours
How it was run: as §1

[6] = system: Aspergillus terreus ATCC 46941; assay: In vitro antifungal activity (MIC), NCCLS method; format: cell-based; conditions: 48 hours
How it was run: (§2)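 MIC read as the lowest concentration inhibiting growth after 48 hours of culture. Setup follows NCCLS: compound diluted two-fold and inoculated at 5×10^2 to 2.5×10^3 cell/mL final.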

[7] = system: Cryptococcus neoformans ATCC 36556; assay: In vitro antifungal activity (MIC), NCCLS method; format: cell-based; conditions: RPMI 1640 medium, 72 hours
How it was run: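 Broth microdilution per NCCLS: two-fold serial dilutions of test compound inoculated with fungal suspension at a final 5×10^2 to 2.5×10^3 cell/mL. Strains other than Cryptococcus neoformans were incubated 48 hours before MIC reading.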

[8] = system: Candida lusitaniae ATCC 42720; assay: In vitro antifungal activity (MIC), NCCLS method; format: cell-based; conditions: 48 hours
How it was run: as §1

[9] = system: Aspergillus fumigatus ATCC 16424; assay: In vitro antifungal activity (MIC), NCCLS method; format: cell-based; conditions: 48 hours
How it was run: as §2

[10] = system: Candida parapsilosis ATCC 34136; assay: In vitro antifungal activity (MIC), NCCLS method; format: cell-based; conditions: Candida parapsilosis ATCC 34136; 48 hours
How it was run: as §1

[11] = system: Aspergillus flavus ATCC 64025; assay: In vitro antifungal activity (MIC), NCCLS method; format: cell-based; conditions: 48 hours
How it was run: as §2

[12] = molecular target: T1, chitin synthase 2 of Saccharomyces cerevisiae ECY38-38A(pAS6) (Saccharomyces cerevisiae, UniProt P14180); assay: In vitro enzyme assay for chitin synthase 2 of Saccharomyces cerevisiae (enzyme 2); format: biochemical; conditions: relative to polyoxin D (50% inhibitory activity = value 5)
T1 construct: made in house; host or cells: Saccharomyces cerevisiae ECY38-38A (chs1-23 chs2::LEU2 cal1/csd2) carrying plasmid pAS6, grown in galactose medium; 130,000 x g membrane pellet
How it was run: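 Values are scores: 5 means 50% inhibition at the same concentration as polyoxin D, lower scores 2- to 16-fold higher concentration, higher scores ½ to ⅛. Radiolabel from 1.1 mM UDP-[14C]-GlcNAc was incorporated into TCA-insoluble chitin over 90 min at 30 °C (pH 7.5 Tris, 2 mM Co2+). The enzyme was a trypsin-activated membrane fraction from CHS2-only S. cerevisiae ECY38-38A(pAS6).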

[13] = molecular target: T2, chitin synthase 1 of Candida albicans chs2 Δ chs 3 Δ (Candida albicans, UniProt P23316); assay: In vitro enzyme assay for chitin synthase 1 of Candida albicans (enzyme 1); format: biochemical; conditions: relative to polyoxin D (50% inhibitory activity = value 5)
T2 construct: Crude enzyme was prepared using the Candida albicans chs2 Δ chs 3 Δ mutant; endogenous in cells; host or cells: Candida albicans chs2Δ/chs2Δ chs3Δ/chs3Δ mutant; 130,000 x g membrane pellet
How it was run: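 Trypsin-activated crude membrane chitin synthase 1 from C. albicans chs2Δ chs3Δ was incubated 90 min at 30 °C with 1.1 mM UDP-[14C]GlcNAc and 2 mM cobalt acetate in Tris-HCl pH 7.5. Filtered TCA precipitate was counted by scintillation; values are scores 1–8 against polyoxin D (5 = same concentration).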

T1 sequence (P14180 whole entry): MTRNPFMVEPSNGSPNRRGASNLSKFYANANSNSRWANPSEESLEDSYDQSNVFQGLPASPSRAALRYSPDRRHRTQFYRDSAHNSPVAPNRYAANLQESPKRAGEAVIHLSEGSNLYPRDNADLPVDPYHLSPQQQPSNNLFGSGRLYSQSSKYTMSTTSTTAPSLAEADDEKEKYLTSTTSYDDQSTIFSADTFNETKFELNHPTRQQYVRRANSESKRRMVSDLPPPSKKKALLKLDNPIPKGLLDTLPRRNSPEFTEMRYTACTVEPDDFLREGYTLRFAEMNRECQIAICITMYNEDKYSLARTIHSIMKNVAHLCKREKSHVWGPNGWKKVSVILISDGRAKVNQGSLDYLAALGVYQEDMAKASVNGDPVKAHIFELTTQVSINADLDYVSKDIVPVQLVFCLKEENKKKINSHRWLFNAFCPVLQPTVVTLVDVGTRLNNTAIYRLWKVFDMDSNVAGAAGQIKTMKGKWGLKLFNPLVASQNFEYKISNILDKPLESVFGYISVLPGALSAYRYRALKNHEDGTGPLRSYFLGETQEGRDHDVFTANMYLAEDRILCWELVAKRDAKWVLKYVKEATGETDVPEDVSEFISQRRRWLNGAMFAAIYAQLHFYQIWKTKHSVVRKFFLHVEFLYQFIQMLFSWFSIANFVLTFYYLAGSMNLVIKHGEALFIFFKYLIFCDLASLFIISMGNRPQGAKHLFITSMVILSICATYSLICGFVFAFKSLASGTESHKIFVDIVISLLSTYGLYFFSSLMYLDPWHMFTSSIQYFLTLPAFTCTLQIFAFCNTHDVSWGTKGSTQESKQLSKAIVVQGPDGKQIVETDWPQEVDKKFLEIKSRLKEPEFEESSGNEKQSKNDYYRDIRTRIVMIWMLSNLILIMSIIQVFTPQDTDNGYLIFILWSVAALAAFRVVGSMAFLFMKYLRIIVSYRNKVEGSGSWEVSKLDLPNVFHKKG
T2 sequence (P23316 whole entry, stated change not applied): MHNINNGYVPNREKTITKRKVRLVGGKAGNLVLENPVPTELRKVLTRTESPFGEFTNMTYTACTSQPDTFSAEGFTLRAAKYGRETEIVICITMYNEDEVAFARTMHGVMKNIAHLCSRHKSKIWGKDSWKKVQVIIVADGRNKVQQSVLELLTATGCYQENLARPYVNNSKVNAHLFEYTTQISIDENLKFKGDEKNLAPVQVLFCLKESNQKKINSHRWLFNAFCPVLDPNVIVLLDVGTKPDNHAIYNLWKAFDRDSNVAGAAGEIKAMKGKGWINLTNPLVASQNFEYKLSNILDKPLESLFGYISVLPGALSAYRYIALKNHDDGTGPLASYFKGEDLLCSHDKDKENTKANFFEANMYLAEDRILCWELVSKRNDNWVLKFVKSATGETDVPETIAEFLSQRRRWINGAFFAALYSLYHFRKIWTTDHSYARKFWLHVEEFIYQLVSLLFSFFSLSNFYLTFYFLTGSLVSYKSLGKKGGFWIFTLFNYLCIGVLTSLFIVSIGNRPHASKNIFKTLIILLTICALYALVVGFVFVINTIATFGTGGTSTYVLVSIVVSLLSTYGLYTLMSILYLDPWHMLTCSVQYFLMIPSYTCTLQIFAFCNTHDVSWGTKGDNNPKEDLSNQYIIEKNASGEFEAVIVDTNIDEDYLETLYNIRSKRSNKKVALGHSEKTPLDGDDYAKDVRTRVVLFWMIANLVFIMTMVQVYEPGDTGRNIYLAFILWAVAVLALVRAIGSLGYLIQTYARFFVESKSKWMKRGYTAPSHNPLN

Row | Substance | MIC (minimum inhibitory concentration) [1] | MIC (minimum inhibitory concentration) (Candida krusei ATCC 6258) | MIC (minimum inhibitory concentration) [2] | MIC (minimum inhibitory concentration) [3] | MIC (minimum inhibitory concentration) [4] | MIC (minimum inhibitory concentration) [5] | MIC (minimum inhibitory concentration) [6] | MIC (minimum inhibitory concentration) [7] | MIC (minimum inhibitory concentration) [8] | MIC (minimum inhibitory concentration) [9] | MIC (minimum inhibitory concentration) [10] | MIC (minimum inhibitory concentration) [11] | Relative activity Enzyme 2 [12] | Relative activity Enzyme 1 [13]
1 | 13-(4-tert-Butylbenzyl)-9-O-(3-hydroxypropyl)berberrubine chloride [Compound No. 43] | 0.5 µg/mL | 1 µg/mL | 2 µg/mL | 4 µg/mL | 0.5 µg/mL | 0.5 µg/mL | 8 µg/mL | 1 µg/mL | 2 µg/mL | 2 µg/mL | 2 µg/mL | 8 µg/mL | 7 (compounds having the inhibitory activity at ½, ¼ and ⅛ lower concentrations than that of polyoxin D were given the values of 6, 7 and 8, respectively) | 4 (Compounds having the inhibitory activity at 2-fold, 4-fold, 8-fold and 16-fold higher concentrations than that of polyoxin D were given the values of 4, 3, 2 and 1, respectively)
2 | 13-(4-tert-Butylbenzyl)-9-O-(3-hydroxypropyl)berberrubine iodide [Compound No. 11] | 0.5 µg/mL | 1 µg/mL | 2 µg/mL | 4 µg/mL | 0.5 µg/mL | 0.5 µg/mL | 8 µg/mL | 1 µg/mL | 2 µg/mL | 2 µg/mL | 2 µg/mL | 8 µg/mL | 6 (compounds having the inhibitory activity at ½, ¼ and ⅛ lower concentrations than that of polyoxin D were given the values of 6, 7 and 8, respectively) | 4 (Compounds having the inhibitory activity at 2-fold, 4-fold, 8-fold and 16-fold higher concentrations than that of polyoxin D were given the values of 4, 3, 2 and 1, respectively)
3 | 13-(4-tert-Butylbenzyl)-9-O-(4-isopropylbenzyl)berberrubine bromide [Compound No. 16] | 1 µg/mL | 2 µg/mL | 2 µg/mL | 8 µg/mL | 1 µg/mL | 1 µg/mL | 8 µg/mL | 2 µg/mL | 4 µg/mL | 4 µg/mL | 8 µg/mL | 8 µg/mL | 5 (A compound having the same inhibitory activity as that of polyoxin D at the same concentration was given the value 5) | 3 (Compounds having the inhibitory activity at 2-fold, 4-fold, 8-fold and 16-fold higher concentrations than that of polyoxin D were given the values of 4, 3, 2 and 1, respectively)
4 | 13-(4-tert-Butylbenzyl)-9-O-(4-isopropylbenzyl)berberrubine chloride [Compound No. 48] | 1 µg/mL | 2 µg/mL | 2 µg/mL | 8 µg/mL | 1 µg/mL | 1 µg/mL | 8 µg/mL | 2 µg/mL | 4 µg/mL | 4 µg/mL | 8 µg/mL | 8 µg/mL | 5 (A compound having the same inhibitory activity as that of polyoxin D at the same concentration was given the value 5) | 2 (Compounds having the inhibitory activity at 2-fold, 4-fold, 8-fold and 16-fold higher concentrations than that of polyoxin D were given the values of 4, 3, 2 and 1, respectively)
5 | 13-(4-tert-Butylbenzyl)-9-O-(4-tert-butylbenzyl)berberrubine bromide [Compound No. 15] | 1 µg/mL | 4 µg/mL | 4 µg/mL | 8 µg/mL | 1 µg/mL | 1 µg/mL | 8 µg/mL | 2 µg/mL | 4 µg/mL | 4 µg/mL | 8 µg/mL | 8 µg/mL | 5 (A compound having the same inhibitory activity as that of polyoxin D at the same concentration was given the value 5) | 3 (Compounds having the inhibitory activity at 2-fold, 4-fold, 8-fold and 16-fold higher concentrations than that of polyoxin D were given the values of 4, 3, 2 and 1, respectively)
6 | 13-(4-tert-Butylbenzyl)-9-O-(4-tert-butylbenzyl)berberrubine chloride [Compound No. 47] | 1 µg/mL | 4 µg/mL | 4 µg/mL | 8 µg/mL | 1 µg/mL | 1 µg/mL | 8 µg/mL | 2 µg/mL | 4 µg/mL | 4 µg/mL | 8 µg/mL | 8 µg/mL | 5 (A compound having the same inhibitory activity as that of polyoxin D at the same concentration was given the value 5) | 2 (Compounds having the inhibitory activity at 2-fold, 4-fold, 8-fold and 16-fold higher concentrations than that of polyoxin D were given the values of 4, 3, 2 and 1, respectively)
7 | 13-(4-tert-Butylbenzyl)-9-O-(6-chlorohexyl)berberrubine chloride [Compound No. 44] | 0.5 µg/mL | 1 µg/mL | 2 µg/mL | 4 µg/mL | 0.5 µg/mL | 0.5 µg/mL | 8 µg/mL | 1 µg/mL | 2 µg/mL | 2 µg/mL | 2 µg/mL | 8 µg/mL | 6 (compounds having the inhibitory activity at ½, ¼ and ⅛ lower concentrations than that of polyoxin D were given the values of 6, 7 and 8, respectively) | 2 (Compounds having the inhibitory activity at 2-fold, 4-fold, 8-fold and 16-fold higher concentrations than that of polyoxin D were given the values of 4, 3, 2 and 1, respectively)
8 | 13-(4-tert-Butylbenzyl)-9-O-(6-chlorohexyl)berberrubine iodide [Compound No. 12] | 0.5 µg/mL | 1 µg/mL | 2 µg/mL | 4 µg/mL | 0.5 µg/mL | 0.5 µg/mL | 8 µg/mL | 1 µg/mL | 2 µg/mL | 2 µg/mL | 2 µg/mL | 8 µg/mL | 5 (A compound having the same inhibitory activity as that of polyoxin D at the same concentration was given the value 5) | 2 (Compounds having the inhibitory activity at 2-fold, 4-fold, 8-fold and 16-fold higher concentrations than that of polyoxin D were given the values of 4, 3, 2 and 1, respectively)
